Laboratory results from patent publication US9140688B2, “Sperm staining and sorting methods” (INGURAN, LLC, priority 2011, dated 2015).
Read-outs that look alike come from different tables or passages of the source.

What was measured:
[1] = tested on: membrane compromised bovine sperm stained with Hoechst 33342; assay: Dead quenching: dead gate intensity divided by live gate intensity, flow cytometry of stained bovine sperm; type: cell-based; settings: for Dead Intensity (dead gate intensity divided by live gate intensity): Ex 5; for Intensity (dead gate): Hoechst 48 μM
Excerpt: FIG. 4 illustrates an example bivariate plot and univariate histogram of the parameters measured during sex selection by a FACS on a flow cytometer. […] Without a dead quenching dye, both populations of sperm would overlap to a large extent, with unpredictable variations in the dead sperm.
The entire ejaculate of sperm was suspended in first staining buffer, specifically a 7.4 pH TALP described in TABLE 1, to a concentration of 160×10^6 sperm per mL (determined on nucleocounter) and divided into three aliquots of about 20 mL into 50 mL Falcon tubes and pre-warmed for 10 minutes at 34° C. The DNA selective fluorescent dye, Hoechst 33342, was added and samples were held at 34° C. for 60 minutes. 3 different Hoechst 33342 Stain Levels were used=12 μL, 14 μL and 16 μL per 2 mL (effective concentrations of 48 μM, 56 μM, 64 μM).
Preparation of the second buffer including the dead quenching dye—A 2 L bag of TALP, described in TABLE 1, was adjusted to pH 5.60 using HCl and then sterile filtered. […] For each of the four dyes tested (R40—red food dye No. 40, Y5—yellow food dye No. 5, Y6—yellow food dye No. 6 and PR—phenol red), an appropriate number of milligrams of each powder was placed in a Erlenmeyer Flask and then an exact amount of TALP pH 5.60 was added to create a […] concentration of the dye. The result was a working TALP stock for each dye with a 100% (125 μM) relative amount of dye 50% relative (62.5 μM) and 20% relative (25 μM) solutions were made by dilution of 100% by TALP pH 5.60.
After this “bulk” staining for 60 minutes, 1 mL aliquots of stained sperm were combined with 1 mL aliquots of the second buffer including the dead quenching dyes. Samples sat for approximately 30 minutes at room temperature before being analyzed on a MoFlo SX (Beckman Coulter, USA) sperm sorting flow cytometer. Event rates were held as close to 13,000 as possible at the point of data acquisition.
The total number of individual treatments was 42 tubes, each containing 2 mL of stained sample. The alignment of the sorter was established using nuclei and confirmed with live sample from the 50% Red 40 series. Once good alignment was established, each tube was placed on the sorter long enough to establish a stabile dead gate population (about 30 seconds) and then a screenshot was taken and saved as a .jpeg image. This approach of rapidly documenting each sample is used to assure the most consistent alignment between all samples. Realignment of sorter will not cause differences in the intensities of live and dead gate populations but will cause differences in split quality.
FIG. 4 illustrates an example histogram. The ratio of dead gate intensity divided by live gate intensity is created by dividing the distance “A” by the distance “B” shown as a percentage. Lower values mean higher levels of quenching. The ratio of peak height divided by valley height is created by dividing the distance “C” by the distance “D”. A value of 1.00 means “no split” while higher values mean “better splits”. […]

[2] = tested on: X- and Y-chromosome bearing bovine sperm stained with Hoechst 33342; assay: Split quality: height of peak divided by height of valley (PV), flow cytometry of stained bovine sperm; type: cell-based; settings: for Height of Peak/Height of Valley: Ex 5; for Height of Peak Divided by Height of Valley: Ex 7, Phenol Red 620 μM with Yellow 6 62 μM
[3] = solvent water, cited from earlier work
[4] = dye 62.5 μM, Hoechst 12 μL/2 mL
[5] = dye 62.5 μM, Hoechst 14 μL/2 mL
[6] = dye 62.5 μM, Hoechst 16 μL/2 mL

For `O=S1(=O)OC(c2ccc(O)cc2)(c2ccc(O)cc2)c2ccccc21` [Phenol Red, phenolsulfonphthalein], the “Dead Intensity (dead gate intensity divided by live gate intensity)” value ([1]; dye 25 μM, Average of Hoechst levels) was 94%, the “Dead Intensity (dead gate intensity divided by live gate intensity)” value ([1]; dye 25 μM, Hoechst 12 μL/2 mL) was 94% and the “Dead Intensity (dead gate intensity divided by live gate intensity)” value ([1]; dye 25 μM, Hoechst 14 μL/2 mL) was 97%. The “Dead Intensity (dead gate intensity divided by live gate intensity)” value ([1]; dye 25 μM, Hoechst 16 μL/2 mL) was 90%, the “Dead Intensity (dead gate intensity divided by live gate intensity)” value ([1]; dye 62.5 μM, Average of Hoechst levels) was 87% and the “Dead Intensity (dead gate intensity divided by live gate intensity)” value [1, 4] was 90%. For the same compound, the “Dead Intensity (dead gate intensity divided by live gate intensity)” value [1, 5] was 90%, the “Dead Intensity (dead gate intensity divided by live gate intensity)” value [1, 6] was 80% and the “Dead Intensity (dead gate intensity divided by live gate intensity)” value ([1]; dye 125 μM, Average of Hoechst levels) was 79%. The “Dead Intensity (dead gate intensity divided by live gate intensity)” value ([1]; dye 125 μM, Hoechst 12 μL/2 mL) was 80%, the “Dead Intensity (dead gate intensity divided by live gate intensity)” value ([1]; dye 125 μM, Hoechst 14 μL/2 mL) was 80% and the “Dead Intensity (dead gate intensity divided by live gate intensity)” value ([1]; dye 125 μM, Hoechst 16 μL/2 mL) was 78%. For the same compound, the “amount of dye needed for a similar dead gate intensity ratio as red food dye No. 40 and yellow food dye No. 6” value ([1]; Ex 6) was “twelve times more”, the “Intensity (dead gate)” value ([1]; Ex 6, dye 125 μM, pH 7.40) was 85% and the “Intensity (dead gate)” value ([1]; Ex 6, dye 125 μM, resulting pH 6.70) was 79%. For the same compound, the “Intensity (dead gate)” value ([1]; Ex 6, dye 250 μM, pH 7.40) was 76%, the “Intensity (dead gate)” value ([1]; Ex 6, dye 250 μM, resulting pH 6.70) was 70% and the “Intensity (dead gate)” value ([1]; Ex 6, dye 500 μM, pH 7.40) was 66%. For the same compound, the “Intensity (dead gate)” value ([1]; Ex 6, dye 500 μM, resulting pH 6.70) was 67%, the “Intensity (dead gate)” value ([1]; Ex 6, dye 750 μM, pH 7.40) was 56% and the “Intensity (dead gate)” value ([1]; Ex 6, dye 750 μM, resulting pH 6.70) was 55%. For the same compound, the “Intensity (dead gate)” value ([1]; Ex 6, dye 875 μM, pH 7.40) was 47%, the “Intensity (dead gate)” value ([1]; Ex 6, dye 875 μM, resulting pH 6.70) was 45% and the “Intensity (dead gate)” value ([1]; Ex 6, dye 1250 μM, pH 7.40) was 43%. For the same compound, the “Intensity (dead gate)” value ([1]; Ex 6, dye 1250 μM, second buffer pH 5.60 (resulting pH 6.70)) was 41%, the “Height of Peak/Height of Valley” value ([2]; dye 25 μM, Average of 12 and 14 μL series) was 1.74 and the “Height of Peak/Height of Valley” value ([2]; dye 25 μM, Hoechst 12 μL/2 mL) was 1.82. For the same compound, the “Height of Peak/Height of Valley” value ([2]; dye 25 μM, Hoechst 14 μL/2 mL) was 1.65, the “Height of Peak/Height of Valley” value ([2]; dye 25 μM, Hoechst 16 μL/2 mL) was 1.00 and the “Height of Peak/Height of Valley” value ([2]; dye 62.5 μM, Average of 12 and 14 μL series) was 1.75. For the same compound, the “Height of Peak/Height of Valley” value [2, 4] was 1.62, the “Height of Peak/Height of Valley” value [2, 5] was 1.87 and the “Height of Peak/Height of Valley” value [2, 6] was 1.00. For the same compound, the “Height of Peak/Height of Valley” value ([2]; dye 125 μM, Average of 12 and 14 μL series) was 1.62, the “Height of Peak/Height of Valley” value ([2]; dye 125 μM, Hoechst 12 μL/2 mL) was 1.49 and the “Height of Peak/Height of Valley” value ([2]; dye 125 μM, Hoechst 14 μL/2 mL) was 1.75. For the same compound, the “Height of Peak/Height of Valley” value ([2]; dye 125 μM, Hoechst 16 μL/2 mL) was 1.00, the PV ([2]; Ex 6, dye 125 μM, pH 7.40, Hoechst 48 μM) was 1.27 and the PV ([2]; Ex 6, dye 125 μM, resulting pH 6.70, Hoechst 48 μM) was 1.00. For the same compound, the PV ([2]; Ex 6, dye 250 μM, pH 7.40, Hoechst 48 μM) was 1.22, the PV ([2]; Ex 6, dye 250 μM, resulting pH 6.70, Hoechst 48 μM) was 1.17 and the PV ([2]; Ex 6, dye 500 μM, pH 7.40, Hoechst 48 μM) was 1.51. It also gave a PV ([2]; Ex 6, dye 500 μM, resulting pH 6.70, Hoechst 48 μM) of 1.25, a PV ([2]; Ex 6, dye 750 μM, pH 7.40, Hoechst 48 μM) of 1.46 and a PV ([2]; Ex 6, dye 750 μM, resulting pH 6.70, Hoechst 48 μM) of 1.25. It also gave a PV ([2]; Ex 6, dye 875 μM, pH 7.40, Hoechst 48 μM) of 1.44, a PV ([2]; Ex 6, dye 875 μM, resulting pH 6.70, Hoechst 48 μM) of 1.20 and a PV ([2]; Ex 6, dye 1250 μM, pH 7.40, Hoechst 48 μM) of 1.30. The PV ([2]; Ex 6, dye 1250 μM, resulting pH 6.70, Hoechst 48 μM (understained)) was 1.29, the “Height of Peak Divided by Height of Valley” value (shortened to “Height of Peak Divided”) ([2]; cells 100 million per mL) was 1.49 and the “Height of Peak Divided” value ([2]; cells 150 million per mL) was 1.34. For the same compound, the “Height of Peak Divided” value ([2]; cells 250 million per mL) was 1.43, the “Height of Peak Divided” value ([2]; cells 300 million per mL) was 1.36 and the PV ([2]; Ex 8, Bull 1, Hoechst 44 μM, PR 250 μM with Y6 50 μM) was 1.52. The PV ([2]; Ex 8, Bull 1, Hoechst 44 μM, PR 500 μM alone) was 1.97, the PV ([2]; Ex 8, Bull 1, Hoechst 60 μM, PR 375 μM alone) was 2.38 and the PV ([2]; Ex 8, Bull 1, Hoechst 60 μM, PR 375 μM with Y6 50 μM) was 2.38. The PV ([2]; Ex 8, Bull 1, Hoechst 60 μM, PR 1200 μM with R40 20 μM) was 2.12, the PV ([2]; Ex 8, Bull 2, Hoechst 28 μM, PR 375 μM alone) was 1.96 and the PV ([2]; Ex 8, Bull 2, Hoechst 28 μM, PR 375 μM with Y6 50 μM) was 2.05. For the same compound, the PV ([2]; Ex 8, Bull 2, Hoechst 44 μM, PR 225 μM with Y6 50 μM) was 1.56, the PV ([2]; Ex 8, Bull 2, Hoechst 44 μM, PR 375 μM with R40 20 μM) was 1.64 and the PV ([2]; Ex 8, Bull 2, Hoechst 44 μM, PR 375 μM with Y6 50 μM) was 1.75. The PV ([2]; Ex 8, Bull 2, Hoechst 60 μM, PR 375 μM with Y6 50 μM) was 1.69, the PV ([2]; Ex 8, Bull 2, Hoechst 60 μM, PR 375 μM with Y6 375 μM) was 2.31 and the “effect of addition on split quality, in words” value ([2]; Ex 8, each Hoechst level, with Red 40 or Yellow 6) was “always improved split quality”. For the same compound, the “split enhancing effect compared to control, in words” value ([2]; Ex 10, 15, 45, 125 μM, averaged over 8 bulls) was “consistent split improvements at all concentrations after 30 minutes”, the “Expected Absorption Maxima” value ([3]; longer-wavelength local maximum) was 560 nm and the “Expected Absorption Maxima” value ([3]; shorter-wavelength local maximum) was 440 nm.
